Patent US20230104690A1, “MATRIX METALLOPROTEINASE INHIBITORS (MMPIs)” (Brandon University, priority 2020, published 2023)
“Also recorded” adds a separate entry of the source.

Legend:
MMP3 [1] = target: T1, MMP3 (Rattus norvegicus, UniProt P03957); test: NFF-3 fluorescence assay in C6-13 (C6-Cx43) glioma conditioned media; format: biochemical; conditions: 50 μM and 100 μM, over six hours, relative to untreated controls
T1 construct: endogenous in cells; host or cells: C6-13 (C6 glioma clone stably expressing Cx43), conditioned serum-free medium
T1 sequence (P03957 98-475): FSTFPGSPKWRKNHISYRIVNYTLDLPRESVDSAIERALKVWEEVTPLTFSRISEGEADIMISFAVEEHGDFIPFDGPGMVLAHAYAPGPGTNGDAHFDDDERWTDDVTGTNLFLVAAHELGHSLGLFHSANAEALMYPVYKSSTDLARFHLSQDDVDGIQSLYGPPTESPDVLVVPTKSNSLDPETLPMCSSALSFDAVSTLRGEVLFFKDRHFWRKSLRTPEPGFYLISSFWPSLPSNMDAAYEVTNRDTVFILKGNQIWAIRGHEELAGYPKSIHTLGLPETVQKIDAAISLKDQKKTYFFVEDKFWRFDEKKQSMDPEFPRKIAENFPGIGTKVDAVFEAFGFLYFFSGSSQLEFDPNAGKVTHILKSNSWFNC
Description: Glioma Cell Culture. […] Anal Bioanal Chem 2010, 398 (1), 477-87). […] Zymography. […] SDS-PAGE/Western Blotting. Conditioned media was collected and chilled on ice. […] Proteins were pelleted by centrifugation (12 minutes, 4800 g). Proteins were suspended in SDS-PAGE loading buffer. […] NFF-3 Fluorescence Assay. […] After conditioning, the media was collected. Each experimental condition had its own control condition. […] The experiment was conducted at 37° C. […] The docking of MMP Inhibitors.
The synthesis of the MMP Inhibitors and NFF3 analysis. The leucine-tryptophan (Leu-Trp) backbone, AP-1, and AP-2 were synthesized. All synthesized compounds were analyzed by mass spectrometry (FIG. 3). The NFF-3 assay was used to determine the biological inhibition of MMP-3 activity for ilomastat and synthesized compounds, Leu-Trp, and AP-1 relative to untreated controls. […] Linear responses of MMP3 activity was robustly measured from about 30 to about 300 minutes. All compounds were tested at a concentration of 50 μM and 100 μM, and compared to determine MMP3 suppression. From FIG. 6, concentration dependent inhibition was observed.

MMP3 [2] = target: T1, MMP3; test: Gelatin zymography of C6-13 conditioned media; format: cell-based; conditions: ilomastat 0-100 uM, 0.1% gelatin
Description: (§1) Glioma Cell Culture. The C6 glioma line (American Type Culture Collection, ATCC) maintains many characteristics of GBM including cancer stem cell behavior ability to generate GBMs in rats upon injection in the brain (Grobben, B.; De Deyn, P. P.; Slegers, H., Rat C6 glioma as experimental model system for the study of glioblastoma growth and invasion. Cell Tissue Res 2002, 310 (3), 257-70; Zheng, X.; Shen, G.; Yang, X.; Liu, W., Most C6 cells are cancer stem cells: evidence from clonal and population analyses. Cancer Res 2007, 67 (8), 3691-7; and Beljebbar, A.; Dukic, S.; Amharref, N.; Manfait, M., Ex vivo and in vivo diagnosis of C6 glioblastoma development by Raman spectroscopy coupled to a microprobe. Anal Bioanal Chem 2010, 398 (1), 477-87). […] Cell Mol Neurobiol 1992, 12 (2), 163-75.) Glioma cells were maintained at 37° C., 95% air and 5% CO2 in a humidified incubator. Cells were cultivated in high glucose DMEM (4.0 g/L, ThermoFisher Scientific) containing L-glutamine (4.0 mM), antibiotics (penicillin, 100 IU/mL; streptomycin, 100 μg/mL) and 10% fetal bovine serum (FBS; Gibco). For collection of conditioned media, cells were plated in 6-well plate (200,000 cells/well) and grown to 80% confluency over the course of 3 days. […] Protein concentration was determined by BCA assay and samples suspended in SDS loading buffer (no DTT and without boiling). […]

C6 glioma cells = conditions: ≤100 uM, propidium iodide stain, data not shown
Description: as §1

Row | Structure (SMILES) | Inhibition of MMP-3 activity (NFF-3 fluorescence) (MMP3 [1]) | Loss of MMP3 activity (zymography) (MMP3 [2]) | Cell death (C6 glioma cells)
1 | CC(C)C[C@H](N)C(=O)N[C@@H](Cc1c[nH]c2ccccc12)C(=O)O [Leu-Trp] | can act as a competitive inhibitor |  | 
2 | CNC(=O)[C@H](Cc1c[nH]c2ccccc12)NC(=O)[C@@H](CC(=O)NO)CC(C)C [Ilomastat] | perform better than Leu-Trp at inhibiting MMP-3 | concentration-dependent inhibition of secreted MMP3; also recorded: dose-dependent loss of MMP3 activity | < 1%
